Target: Solute carrier family 22 member 4 (Homo sapiens) (UniProt Q9H015)
Test: OCTN1 transporter activation by substrate – membrane potential dye, HEK-293 overexpressing cells, dose response (AID 1794816)
Conditions: HEK-293 SLC22A4 OE, FLIPR membrane potential dye

Chain of Solute carrier family 22 member 4 (Homo sapiens) (Q9H015 whole entry, looked up): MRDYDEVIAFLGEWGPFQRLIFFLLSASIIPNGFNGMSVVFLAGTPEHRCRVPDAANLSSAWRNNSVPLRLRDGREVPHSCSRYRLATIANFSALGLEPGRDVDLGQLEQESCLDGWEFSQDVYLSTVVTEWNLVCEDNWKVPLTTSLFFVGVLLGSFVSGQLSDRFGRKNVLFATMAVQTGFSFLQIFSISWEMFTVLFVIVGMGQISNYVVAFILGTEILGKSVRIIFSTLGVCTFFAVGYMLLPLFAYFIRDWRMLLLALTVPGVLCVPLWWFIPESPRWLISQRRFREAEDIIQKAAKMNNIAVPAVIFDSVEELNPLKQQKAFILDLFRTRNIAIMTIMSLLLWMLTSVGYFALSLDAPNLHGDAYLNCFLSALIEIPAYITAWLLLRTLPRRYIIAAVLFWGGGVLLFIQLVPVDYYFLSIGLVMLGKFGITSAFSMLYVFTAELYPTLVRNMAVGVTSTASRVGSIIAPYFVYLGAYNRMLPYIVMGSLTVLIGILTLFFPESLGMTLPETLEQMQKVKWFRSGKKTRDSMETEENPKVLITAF

In the case of `C[N+](C)(C)[C@@H](Cc1c[nH]c(=S)[nH]1)C(=O)[O-]`, the EC50 is reported as 40 µM.
